Experiments:
[1] = system: rat hind paw incision model; experiment: Brennan incisional pain model, prophylactic paradigm; type: in vivo; conditions: single pre-surgical dose; 24 h, 48 h, 72 h post dose; FIG. 11
From the text: (§1) Two incisional pain models were used to assess Compound 1 effects on hyperalgesia. The first model is referred to as the Brennan model in which, under anesthesia, a 1 cm longitudinal incision to the skin and underlying fascia of a rat hindpaw is made. The second is a variation but is a more invasive procedure in which the skin and muscle are spread apart using forceps which creates a longer-lasting hypersensitivity.
Using the Brennan protocol and a prophylactic paradigm, Compound 1 (3 doses given PO) or vehicle was administered 15 min prior to incision. At the 24-, 48-, and 72-h time points post-incision, mechanical thresholds were obtained (manual von Frey filament, using up/down method).
In a subsequent experiment, the same paradigm was used with Compound 1 administered at a dose of 30 mg/kg PO along with positive control group consisting of celecoxib (30 mg/kg PO), morphine (10 mg/kg SC), and vehicle.

[2] = system: established incision-induced mechanical hyperalgesia; experiment: Brennan incisional pain model, treatment paradigm; type: in vivo, rat; conditions: morphine 3 mg/kg SC
From the text: as §1
Using the Brennan protocol and a treatment paradigm in rat, Compound 1 (10 and 30 mg/kg PO), morphine (3 mg/kg SC) or vehicle were administered daily at 24 h post-incision, and again at 48 and 72 h post-incision. Mechanical thresholds were obtained at 1 h and 2 h post-dose in all cohorts on all days.

Row | SMILES | effect on development of mechanical hyperalgesia [1] | effect on established mechanical hyperalgesia (overall) ([2]; Compound 1 10 and 30 mg/kg PO daily, FIG. 12) | analgesia ([2]; Day 1, 2-h time point) | mechanical threshold ([2]; Day 1, 1 h post-dose) | hyperalgesia ([2]; Day 2, 1-h time point) | hyperalgesia ([2]; Day 2, 2 h) | mechanical threshold ([2]; Day 2 prior to dosing (Pre-Drug (D2)))
1 | Cc1ccc(-c2cc(C(F)(F)F)nn2-c2ccc(S(N)(=O)=O)cc2)cc1 [celecoxib, reference compound] | no effect | – | – | – | – | – | –
2 | CN1CC[C@]23c4c5ccc(O)c4O[C@H]2[C@@H](O)C=C[C@H]3[C@H]1C5 [morphine, reference compound] | no effect | analgesic at t=1 h on d1, and at t=1 h and 2 h post-dose on d2 and d3 | this effect waned | 45 g | not hyperalgesic | mild hyperalgesia | < 15 g

Source: patent US20200246316A1, “METHODS OF TREATING POST-SURGICAL PAIN WITH A THIAZOLINE ANTI-HYPERALGESIC AGENT” (CERSCI THERAPEUTICS, INC., priority 2019, published 2020)
